Data as given in patent publication US8901072B2, “Glycopeptide and lipoglycopeptide antibiotics with improved solubility” (The Medicines Company, priority 2009, dated 2014).
Values after ≈ are worked out from the molar mass of the structure shown.

Key:
[1] = Solubility in phosphate buffered saline; assay type: physicochemical; conditions: pH 7.4
Procedure: To a sample of the material of known mass were added known volumes of phosphate buffered saline until complete dissolution is observed. Suspensions were centrifuged for 5 min at 10000 rpm. […] Upon complete dissolution, the solution is diluted until the final concentration is 0.5 mg/mL to ensure that the material remains soluble over the entire range of concentrations.

S. aureus ATCC 13709 = test: In vitro antibacterial susceptibility (MIC, broth microdilution); assay type: cell-based; conditions: for MIC against S. aureus ATCC 13709, CAMHB: cation-adjusted Mueller-Hinton broth, 37° C., 18 h; for Antibacterial activity compared with oritavancin 5: deduced from the MIC data of Table 2
Procedure: Susceptibility of S. aureus strain ATCC13709 to oritavancin (5) and synthesized compounds was determined following the guidelines set by the Clinical and Laboratory Standards Institute (formerly the National Committee for Clinical Laboratory Standards) (M26-A). Compounds were serially diluted two-fold in either DMSO (Oritavancin 5) or in PBS and transferred to cation-adjusted Mueller Hinton broth (CAMHB; Becton Dickinson). 50 μL of compounds diluted in CAMHB was mixed with 100 μL of bacteria diluted in CAMHB in 96-well microtiter plates. The final number of micro-organisms in the assay was 5×10^5 c.f.u. per mL and the final concentration of DMSO in the assay, if present, was 1.25%. All solutions may contain 0.002% Tween as indicated. Assays were set up in duplicate and incubated at 37° C. for 18 h. The concentration of compound that inhibited visible growth was reported as the minimum inhibitory concentration (MIC).

[2] = 10 mM phosphate buffered saline (0.138 M NaCl, 2.7 mM KCl)

Compound | Solubility (mg/mL) PBS [1, 2] | MIC against S. aureus ATCC 13709, CAMHB + 0.002% tween (S. aureus ATCC 13709) | MIC against S. aureus ATCC 13709, CAMHB + 50% human serum (S. aureus ATCC 13709) | MIC against S. aureus ATCC 13709, CAMHB + 50% mouse serum (S. aureus ATCC 13709) | MIC against S. aureus ATCC 13709, CAMHB + 50% rat serum (S. aureus ATCC 13709) | MIC against S. aureus ATCC 13709, CAMHB (S. aureus ATCC 13709) | Antibacterial activity compared with oritavancin 5 (S. aureus ATCC 13709) | Solubility (mg/mL) PBS [1]
CC(C)CC(C(=O)NC1C(=O)NC(CC(N)=O)C(=O)NC2C(=O)NC3C(=O)NC(C(=O)NC(C(=O)O)c4cc(O)cc(O)c4-c4cc3ccc4O)C(OC3CC(C)(N)C(O)C(C)O3)c3ccc(c(Cl)c3)Oc3cc2cc(c3OC2OC(CO)C(O)C(O)C2OC2CC(C)(NCc3ccc(-c4ccc(Cl)cc4)cc3)C(O)C(C)O2)Oc2ccc(cc2Cl)C1O)N(C)C(=O)OCOC(=O)CCC(=O)O (stereo not shown) [Compound 7] | <0.5 mg/mL | 0.125 µg/mL | 0.5 µg/mL | 0.5 µg/mL | 0.25 µg/mL | 2 µg/mL (≈ 1.02 µM) | within an order of magnitude of that of oritavancin 5 | –
CC(C)CC(C(=O)NC1C(=O)NC(CC(N)=O)C(=O)NC2C(=O)NC3C(=O)NC(C(=O)NC(C(=O)O)c4cc(O)cc(O)c4-c4cc3ccc4O)C(OC3CC(C)(N)C(O)C(C)O3)c3ccc(c(Cl)c3)Oc3cc2cc(c3OC2OC(CO)C(O)C(O)C2OC2CC(C)(NCc3ccc(-c4ccc(Cl)cc4)cc3)C(O)C(C)O2)Oc2ccc(cc2Cl)C1O)N(C)C(=O)OCOC(=O)CNCCCNCCCCNCCCN (stereo not shown) [Compound 38] | <0.5 mg/mL | 0.25 µg/mL | 1 µg/mL | 1 µg/mL | 0.5 µg/mL | 2 µg/mL (≈ 0.948 µM) | within an order of magnitude of that of oritavancin 5 | –
CC(C)CC(C(=O)NC1C(=O)NC(CC(N)=O)C(=O)NC2C(=O)NC3C(=O)NC(C(=O)NC(C(=O)O)c4cc(O)cc(O)c4-c4cc3ccc4O)C(OC3CC(C)(N)C(O)C(C)O3)c3ccc(c(Cl)c3)Oc3cc2cc(c3OC2OC(CO)C(O)C(O)C2OC2CC(C)(NCc3ccc(-c4ccc(Cl)cc4)cc3)C(O)C(C)O2)Oc2ccc(cc2Cl)C1O)N(C)C(=O)OCOC(=O)CCP(=O)(O)O (stereo not shown) [Compound 84] | 0.5 to 1 mg/mL | 0.125 µg/mL | 0.5 µg/mL | 2 µg/mL | – | 1 µg/mL (≈ 0.499 µM) | within an order of magnitude of that of oritavancin 5 | –
CC(C)CC(C(=O)NC1C(=O)NC(CC(N)=O)C(=O)NC2C(=O)NC3C(=O)NC(C(=O)NC(C(=O)O)c4cc(O)cc(O)c4-c4cc3ccc4O)C(OC3CC(C)(N)C(O)C(C)O3)c3ccc(c(Cl)c3)Oc3cc2cc(c3OC2OC(CO)C(O)C(O)C2OC2CC(C)(NCc3ccc(-c4ccc(Cl)cc4)cc3)C(O)C(C)O2)Oc2ccc(cc2Cl)C1O)N(C)C(=O)CNC(=O)C(N)CCCCN (stereo not shown) [Compound 61] | <0.5 mg/mL | 0.25 µg/mL | 0.25 µg/mL | 1 µg/mL | 0.5 µg/mL | 2 µg/mL (≈ 1.01 µM) | within an order of magnitude of that of oritavancin 5 | –
CC(C)CC(C(=O)NC1C(=O)NC(CC(N)=O)C(=O)NC2C(=O)NC3C(=O)NC(C(=O)NC(C(=O)O)c4cc(O)cc(O)c4-c4cc3ccc4O)C(OC3CC(C)(N)C(O)C(C)O3)c3ccc(c(Cl)c3)Oc3cc2cc(c3OC2OC(CO)C(O)C(O)C2OC2CC(C)(NCc3ccc(-c4ccc(Cl)cc4)cc3)C(O)C(C)O2)Oc2ccc(cc2Cl)C1O)N(C)C(=O)OCOC(=O)CCC(=O)NC(CCC(=O)O)(CCC(=O)O)CCC(=O)O (stereo not shown) [Compound 78] | 4 mg/mL (≈ 1820 µM) | 1 µg/mL | 16 µg/mL | 32 µg/mL | – | 8 µg/mL (≈ 3.64 µM) | weaker activities | –
CC(=O)[O-].CNC(CC(C)C)C(=O)NC1C(=O)NC(CC(N)=O)C(=O)NC2C(=O)NC3C(=O)NC(C(=O)NC(C(=O)SCC[N+](C)(C)C)c4cc(O)cc(O)c4-c4cc3ccc4O)C(OC3CC(C)(N)C(O)C(C)O3)c3ccc(c(Cl)c3)Oc3cc2cc(c3OC2OC(CO)C(O)C(O)C2OC2CC(C)(NCc3ccc(-c4ccc(Cl)cc4)cc3)C(O)C(C)O2)Oc2ccc(cc2Cl)C1O (stereo not shown) [98 (acetate salt)] | – | – | – | – | – | – | – | 20 mg/mL
CC(C)CC(C(=O)NC1C(=O)NC(CC(N)=O)C(=O)NC2C(=O)NC3C(=O)NC(C(=O)NC(C(=O)O)c4cc(O)cc(O)c4-c4cc3ccc4O)C(OC3CC(C)(N)C(O)C(C)O3)c3ccc(c(Cl)c3)Oc3cc2cc(c3OC2OC(CO)C(O)C(O)C2OC2CC(C)(NCc3ccc(-c4ccc(Cl)cc4)cc3)C(O)C(C)O2)Oc2ccc(cc2Cl)C1O)N(C)C(=O)CCC(=O)N(CC(=O)O)CC(=O)O (stereo not shown) [Compound 13] | 5.5 mg/mL (≈ 2740 µM) | 2 µg/mL | 64 µg/mL | 64 µg/mL | 32 µg/mL | 4 µg/mL (≈ 1.99 µM) | weaker activities | –
CC(C)CC(C(=O)NC1C(=O)NC(CC(N)=O)C(=O)NC2C(=O)NC3C(=O)NC(C(=O)NC(C(=O)O)c4cc(O)cc(O)c4-c4cc3ccc4O)C(OC3CC(C)(N)C(O)C(C)O3)c3ccc(c(Cl)c3)Oc3cc2cc(c3OC2OC(CO)C(O)C(O)C2OC2CC(C)(NCc3ccc(-c4ccc(Cl)cc4)cc3)C(O)C(C)O2)Oc2ccc(cc2Cl)C1O)N(C)C(=O)OCc1ccc(OP(=O)(O)O)cc1 (stereo not shown) [Compound 70] | 8 mg/mL (≈ 3950 µM) | 1 µg/mL | 32 µg/mL | 32 µg/mL | >32 µg/mL | 2 µg/mL (≈ 0.989 µM) | weaker activities | –
CC(C)CC(C(=O)NC1C(=O)NC(CC(N)=O)C(=O)NC2C(=O)NC3C(=O)NC(C(=O)NC(C(=O)O)c4cc(O)cc(O)c4-c4cc3ccc4O)C(OC3CC(C)(N)C(O)C(C)O3)c3ccc(c(Cl)c3)Oc3cc2cc(c3OC2OC(CO)C(O)C(O)C2OC2CC(C)(NCc3ccc(-c4ccc(Cl)cc4)cc3)C(O)C(C)O2)Oc2ccc(cc2Cl)C1O)N(C)C(=O)OCOC(=O)C(N)CCCCN (stereo not shown) [Compound 44] | <0.5 mg/mL | 0.5 µg/mL | 4 µg/mL | 0.25 µg/mL | 0.5 µg/mL | 4 µg/mL (≈ 2 µM) | within an order of magnitude of that of oritavancin 5 | –
CNC(CC(C)C)C(=O)NC1C(=O)NC(CC(N)=O)C(=O)NC2C(=O)NC3C(=O)NC(C(=O)NC(C(=O)SCC[N+](C)(C)C)c4cc(O)cc(O)c4-c4cc3ccc4O)C(OC3CC(C)(N)C(O)C(C)O3)c3ccc(c(Cl)c3)Oc3cc2cc(c3OC2OC(CO)C(O)C(O)C2OC2CC(C)(NCc3ccc(-c4ccc(Cl)cc4)cc3)C(O)C(C)O2)Oc2ccc(cc2Cl)C1O (stereo not shown) [Compound 98] | – | 0.25 µg/mL | 0.25 µg/mL | 2 µg/mL | 0.125 µg/mL | 1 µg/mL | within an order of magnitude of that of oritavancin 5 | –
CC(C)CC(C(=O)NC1C(=O)NC(CC(N)=O)C(=O)NC2C(=O)NC3C(=O)NC(C(=O)NC(C(=O)O)c4cc(O)cc(O)c4-c4cc3ccc4O)C(OC3CC(C)(N)C(O)C(C)O3)c3ccc(c(Cl)c3)Oc3cc2cc(c3OC2OC(CO)C(O)C(O)C2OC2CC(C)(NCc3ccc(-c4ccc(Cl)cc4)cc3)C(O)C(C)O2)Oc2ccc(cc2Cl)C1O)N(C)C(=O)OCOC(=O)CCC(=O)N(CC(=O)O)CC(=O)O (stereo not shown) [Compound 20] | 5.5 mg/mL (≈ 2640 µM) | 4 µg/mL | 16 µg/mL | 16 µg/mL | 2 µg/mL | 4 µg/mL (≈ 1.92 µM) | weaker activities | –
CC(C)CC(C(=O)NC1C(=O)NC(CC(N)=O)C(=O)NC2C(=O)NC3C(=O)NC(C(=O)NC(C(=O)O)c4cc(O)cc(O)c4-c4cc3ccc4O)C(OC3CC(C)(N)C(O)C(C)O3)c3ccc(c(Cl)c3)Oc3cc2cc(c3OC2OC(CO)C(O)C(O)C2OC2CC(C)(NCc3ccc(-c4ccc(Cl)cc4)cc3)C(O)C(C)O2)Oc2ccc(cc2Cl)C1O)N(C)C(=O)CNCCCNCCCCNCCCN (stereo not shown) [Compound 36] | – | 0.06 µg/mL | 0.125 µg/mL | 0.25 µg/mL | 0.125 µg/mL | 1 µg/mL (≈ 0.491 µM) | – | –
